Data taken from patent publication US11807693B2 (priority 2014, dated 2023).
Where two headings read alike, the source gives them in different places. Starred links: 1 amine or outer side, 2 acyl side, 3 side chain; linkers in the order of their positions; H or OH if unused. Non-standard residues stand in square brackets, D forms with d. Residues, ends and D or L forms follow the SMILES beside them. *: point of attachment. dBip = N[C@H](Cc1ccc(-c2ccccc2)cc1)C(=O)O; Oic = O=C(O)[C@@H]1C[C@@H]2CCCC[C@@H]2N1; dPhe(4-Cl) = N[C@H](Cc1ccc(Cl)cc1)C(=O)O; Phe(4-I) = N[C@@H](Cc1ccc(I)cc1)C(=O)O; γGlu = O=C(O)[C@H](CCC(=O)[*:2])N[*:1]; NMeR = CN[C@@H](CCCNC(=N)N)C(=O)O; Tridecanoyl = CCCCCCCCCCCCC(=O)*; hArg = N=C(N)NCCCC[C@H](N)C(=O)O; Cha = N[C@@H](CC1CCCCC1)C(=O)O; NMeL = CN[C@@H](CC(C)C)C(=O)O; Nle = CCCC[C@H](N)C(=O)O; AEEA = NCCOCCOCC(=O)O; βAla = NCCC(=O)O

Key:
[1] = In vitro stability in rat plasma; format: in vitro ADME
In short: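 Incubations: 5 μM apelin peptide, 37° C., 4 hr, in rat plasma, liver or kidney homogenate. Read-out via high resolution LC-MS after MeOH/internal standard precipitation and centrifugation.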

human APJ receptor = molecular target: T1, human APJ receptor (Homo sapiens, UniProt P35414); test: [35S] GTPγS assay, human APJ receptor; format: biochemical
T1 construct: expressed in transfected cells
T1 sequence (P35414 1-380): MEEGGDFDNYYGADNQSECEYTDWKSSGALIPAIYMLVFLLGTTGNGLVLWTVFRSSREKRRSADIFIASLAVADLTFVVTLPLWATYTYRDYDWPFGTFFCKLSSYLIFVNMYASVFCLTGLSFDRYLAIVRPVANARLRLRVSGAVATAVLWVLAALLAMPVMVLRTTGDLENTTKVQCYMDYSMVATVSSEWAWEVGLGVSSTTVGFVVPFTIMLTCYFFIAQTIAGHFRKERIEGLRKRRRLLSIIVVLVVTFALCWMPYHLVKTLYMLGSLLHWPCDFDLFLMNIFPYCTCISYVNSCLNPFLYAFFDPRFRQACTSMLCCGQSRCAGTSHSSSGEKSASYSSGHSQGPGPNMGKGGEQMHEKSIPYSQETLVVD

rat APJ receptor = molecular target: T2, rat APJ receptor (Rattus norvegicus, UniProt Q9JHG3); test: [35S] GTPγS assay, rat APJ receptor; format: biochemical
T2 construct: expressed in transfected cells
T2 sequence (Q9JHG3 1-377): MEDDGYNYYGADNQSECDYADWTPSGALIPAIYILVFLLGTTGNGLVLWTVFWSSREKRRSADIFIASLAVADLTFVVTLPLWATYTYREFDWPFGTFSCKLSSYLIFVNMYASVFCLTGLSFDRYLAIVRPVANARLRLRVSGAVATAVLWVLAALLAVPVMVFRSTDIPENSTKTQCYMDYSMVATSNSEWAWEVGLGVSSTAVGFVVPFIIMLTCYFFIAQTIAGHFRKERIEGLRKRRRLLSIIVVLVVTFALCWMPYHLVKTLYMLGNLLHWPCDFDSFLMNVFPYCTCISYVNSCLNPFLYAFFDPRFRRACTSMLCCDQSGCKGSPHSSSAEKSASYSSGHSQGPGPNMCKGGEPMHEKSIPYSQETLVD
Protocol: The membranes were incubated with modified peptides in the assay buffer. […] Bound [^35S] GTPγS was separated from free radiolabel by filtration. The filter bound radioactivity was determined by liquid scintillation counting.

[2] = rat APJ receptor, read-out: EC50 Rat APJ Receptor

CCCCCCCCCCCCCCCC(=O)N[C@@H](CCC(=O)NCCOCCOCC(=O)NCCOCCOCC(=O)N[C@H](CCC(N)=O)C(=O)N[C@@H](CCCNC(=N)N)C(=O)N1CCC[C@H]1C(=O)N(C)[C@@H](CCCNC(=N)N)C(=O)N[C@@H](CC1CCCCC1)C(=O)N[C@@H](CO)C(=O)N[C@@H](Cc1c[nH]cn1)C(=O)N[C@@H](CCCCN)C(=O)NCC(=O)N1CCCC[C@H]1C(=O)N[C@@H](CCCC)C(=O)N1CCCC(C(=O)N[C@@H](Cc2ccc(Cl)cc2)C(=O)O)C1)C(=O)O (single isomer, unassigned) [compound 588]
remaining at 4 h, 5 μM [1]: > 90% | EC50 (human APJ receptor; human APJ receptor): 1.52 nM

CC(=O)N[C@@H](CCCCNC(=N)N)C(=O)N[C@H](CCCNC(=N)N)C(=O)N[C@@H](CCC(N)=O)C(=O)N[C@@H](CCC(=O)O)C(=O)N1CCC[C@H]1C(=O)N[C@H](CCCNC(=N)N)C(=O)N(C)[C@@H](CC(C)C)C(=O)N[C@@H](CO)C(=O)N[C@@H](Cc1c[nH]cn1)C(=O)N[C@@H](CCCCN)C(=O)NCC(=O)N1[C@H](C(=O)N[C@@H](Cc2ccc(I)cc2)C(=O)N2CCC[C@H]2C(=O)N[C@H](Cc2ccc(-c3ccccc3)cc2)C(=O)O)C[C@@H]2CCCC[C@@H]21 [compound 77] (Ac-[hArg][dR]QEP[dR][NMeL]SHKG[Oic][Phe(4-I)]P[dBip]-OH)
EC50 (rat APJ receptor; [2]): 2.85 nM | EC50 (human APJ receptor; human APJ receptor): 4.92 nM

CC(=O)N[C@@H](CCCCNC(=N)N)C(=O)N[C@H](CCCNC(=N)N)C(=O)N[C@@H](CCC(N)=O)C(=O)N[C@@H](CCCCNC(=N)N)C(=O)N1CCC[C@H]1C(=O)N[C@H](CCCNC(=N)N)C(=O)N(C)[C@@H](CC(C)C)C(=O)N[C@@H](CO)C(=O)N[C@@H](Cc1c[nH]cn1)C(=O)N[C@@H](CCCCN)C(=O)NCC(=O)N[C@@H](CCC(=O)O)C(=O)N[C@@H](Cc1ccc(I)cc1)C(=O)N1CCC[C@H]1C(=O)N[C@H](Cc1ccc(-c2ccccc2)cc1)C(=O)O [compound 85] (Ac-[hArg][dR]Q[hArg]P[dR][NMeL]SHKGE[Phe(4-I)]P[dBip]-OH)
EC50 (rat APJ receptor; [2]): > 4170 nM | EC50 (human APJ receptor; human APJ receptor): > 4170 nM

CC(C)C[C@@H](C(=O)N[C@@H](CO)C(=O)N[C@@H](Cc1c[nH]cn1)C(=O)N[C@@H](CCCCN)C(=O)NCC(=O)N1[C@H](C(=O)N[C@@H](Cc2ccc(I)cc2)C(=O)N2CCC[C@H]2C(=O)N[C@H](Cc2ccc(-c3ccccc3)cc2)C(=O)O)C[C@@H]2CCCC[C@@H]21)N(C)C(=O)[C@@H](CCCNC(=N)N)NC(=O)[C@@H]1CCCN1C(=O)[C@H](CCCCNC(=N)N)NC(=O)[C@H](CCC(N)=O)NC(=O)[C@@H](CCCNC(=N)N)NC(=O)[C@H](CCCCNC(=N)N)NC(=O)COCCOCCNC(=O)COCCOCCNC(=O)CC[C@H](NC(=O)CCCCCCCCC(=O)O)C(=O)O [compound 289]
EC50 (rat APJ receptor; [2]): 1.3 nM | EC50 (human APJ receptor; human APJ receptor): 0.914 nM

CCCCCCCCCCCCC(=O)N[C@@H](CCC(=O)NCCOCCOCC(=O)NCCOCCOCC(=O)N[C@H](CCC(N)=O)C(=O)N[C@@H](CCCCNC(=N)N)C(=O)N1CCC[C@H]1C(=O)N(C)[C@@H](CCCNC(=N)N)C(=O)N[C@@H](CC1CCCCC1)C(=O)N[C@@H](CO)C(=O)N[C@@H](Cc1c[nH]cn1)C(=O)N[C@@H](CCCCN)C(=O)NCC(=O)N1[C@H](C(=O)N[C@@H](CCCC)C(=O)NCCC(=O)N[C@H](Cc2ccc(Cl)cc2)C(=O)O)C[C@@H]2CCCC[C@@H]21)C(=O)O [compound 295] ({Tridecanoyl-γGlu-AEEA-AEEA}-[dQ][hArg]P[NMeR][Cha]SHKG[Oic][Nle][βAla][dPhe(4-Cl)]-OH)
EC50 (rat APJ receptor; Table 16, read-out: EC50 Rat APJ Receptor): 10.4 nM | EC50 (human APJ receptor; Table 16): 3.29 nM

CCCCCCCCCCCCC(=O)N[C@@H](CCC(=O)NCCOCCOCC(=O)NCCOCCOCC(=O)N[C@@H](CCCCNC(=N)N)C(=O)N[C@H](CCCNC(=N)N)C(=O)N[C@@H](CCC(N)=O)C(=O)N[C@@H](CCCCNC(=N)N)C(=O)N1CCC[C@H]1C(=O)N[C@@H](CCCCN)C(=O)N(C)[C@@H](CC(C)C)C(=O)N[C@@H](CO)C(=O)N[C@@H](Cc1c[nH]cn1)C(=O)N[C@@H](CCCC)C(=O)NCC(=O)N1[C@H](C(=O)N[C@@H](Cc2ccc(I)cc2)C(=O)N2CCC[C@H]2C(=O)N[C@H](Cc2ccc(-c3ccccc3)cc2)C(=O)O)C[C@@H]2CCCC[C@@H]21)C(=O)O [compound 313] ({Tridecanoyl-γGlu-AEEA-AEEA}-[hArg][dR]Q[hArg]PK[NMeL]SH[Nle]G[Oic][Phe(4-I)]P[dBip]-OH)
EC50 (rat APJ receptor; [2]): 10.4 nM | EC50 (human APJ receptor; human APJ receptor): 14.7 nM
